{"source": "patent US20160158231A1", "about": "“PYRIMIDINE HYDROXY AMIDE COMPOUNDS FOR TREATING PERIPHERAL NEUROPATHY” (VIB VZW, priority 2014, published 2016)", "key": {"[1]": {"test_system": "vincristine-induced neuropathic pain model in rats", "experiment": "Vincristine-induced neuropathic pain model in rats (Von Frey test)", "assay_type": "in vivo, rat", "procedure": "Neuropathic pain is induced by injecting 5 ml/kg Vincristine (50 μg/kg) administered daily IP for a period of 12 days. The development of neuropathic pain is confirmed by measuring of mechanical allodynia (Von Frey test) on study day 13.\nAllodynic response to tactile stimulation is assessed using the Von Frey apparatus (Touch Test®).\nThe rat will be placed in an enclosure and positioned on a metal mesh surface, but allowed to move freely. The rats' cabins are covered with red cellophane to diminish environmental disturbances. The test begins after a cessation of exploratory behavior. The set of Von Frey monofilaments provide an approximate logarithmic scale of actual force and a linear scale of perceived intensity.\nThe operating principle: when the tip of a fiber of given length and diameter is pressed against the skin at right angles, the force of application increases as long as the researcher continues to advance the probe until the fiber bends. After the fiber bends, the probe continues to advance, causing the fiber to bend more, but without additional force being applied. […] The Touch Test™ Sensory Evaluator can be used on the plantar surfaces of the rat's foot. The animal indicates sensation by pulling back its paw. The minimal force needed to elevate the withdrawal reflex is considered/designated as the value of reference. In order to achieve paw withdrawal, the pressure applied is sometimes greater than 60 g, often requiring the researcher to apply enough pressure with the Von Frey filament to actually lift the paw of the naive animal. Decreases in force needed to induce withdrawal are indicative of allodynia, as the force applied is a non-painful stimulus under normal conditions."}, "[2]": {"test_system": "C57B16/J mice, vincristine-induced sensory neuropathy", "assay_type": "in vivo, mouse", "procedure": "To study whether treatment with vincristine in vivo could induce a peripheral neuropathy, C57B16/J mice were injected intraperitoneally with vincristine on a daily basis. First, the animals were injected with different doses of vincristine. As sensory rather than motor problems are more pronounced in vincristine associated neuropathy patients, the Sensory Nerve Action Potentials (SNAPs) of the dorsal caudal tail nerve were first evaluated (FIG. 6A).\nThese animals were co-treated with vincristine and a selective HDAC6-inhibitor (Tubastatin A) to study the therapeutic potential of HDAC6-inhibition. […] A motor phenotype in our mice after vincristine treatment was not detected (results not shown)."}, "[3]": {"test_system": "taxol-induced neuropathic pain model in rats", "experiment": "Taxol-induced neuropathic pain model in rats (Von Frey test)", "assay_type": "in vivo, rat", "procedure": "A study was conducted to extend the previous findings in the vincristine model to a different model of chemotherapy-induced neuropathy, the taxol-induced neuropathic pain model in rats.\nNeuropathic pain is induced by a 0.5 ml/kg injection of taxol (2 mg/kg) administered IP on days 0-12. The development of neuropathic pain is confirmed by measuring mechanical allodynia (Von Frey test) on study day 13 as described above.\nPain was assessed using Von-Frey (VF) test for tactile allodynia on study days 13-15. The Rotarod Test was used to assess motor/coordination function.\nNeuropathic pain was induced by a 0.5 ml/kg injection of taxol (2 mg/kg) administered IP on study days 0-12. The development of neuropathic pain was confirmed by measuring mechanical allodynia (Von Frey test) on study day 13."}, "[4]": {"test_system": "HDAC6 (acetylated α-tubulin) in Neuro2a cells", "experiment": "Acetylated α-tubulin in Neuro2a cells (Western blot, staining): potency to inhibit HDAC6", "conditions": "for acetylated α-tubulin levels on Western blot / acetylated α-tubulin, staining of treated cells: 1 μM; for acetylated α-tubulin levels on Western blot: compared to DMSO; for acetylated α-tubulin, staining of treated cells: immunofluorescent staining; for relative potency to increase acetylated α-tubulin (dose-response): Western blot, different concentrations"}, "[5]": {"experiment": "Rat pharmacokinetic studies", "assay_type": "in vivo", "conditions": "plasma, male SD rats, IV 1 mg/kg", "procedure": "Male SD rats were fasted overnight. Compounds A and B were dissolved in dimethyl acetamide at 10 times the final concentration, then Solutol HS 15 (BASF) was added to a final concentration of 10%. Finally 80% saline was added and vortexed to achieve a clear solution. For the IV dosing three animals were injected via the foot dorsal vein with 1 mg/kg compound. For the PO dosing 5 mg/kg of compound was delivered by oral gavage. Blood was collected via the tail vein into K2EDTA tubes at 5 minutes, 15 minutes, 30 minutes, 1 hour, 2 hours, 4 hours, 8 hours and 24 hours after dosing. The blood was centrifuged at 2000 g for 5 minutes at 4° C. to obtain plasma. The plasma was extracted with acetonitrile and the level of compound was analyzed by LC/MS/MS. The level of compound in plasma was calculated from a standard curve in rat plasma. The IV clearance and area under the curve were calculated using WinNonLin software. The dose adjusted area under the curve for the IV and oral dosing were used to calculate the oral bioavailability."}, "[6]": {"test_system": "acetylated histone 3 (H3) in Neuro2a cells", "experiment": "Acetylation status of histone 3 in Neuro2a cells: selectivity", "assay_type": "cell-based, mouse", "conditions": "1 μM; for acetylation of H3 on Western blot: ratio acetylated H3/H4 normalized to DMSO"}, "HSPB1^S135F DRG neurons [7]": {"test_system": "HSPB1^S135F DRG neurons", "experiment": "Axonal transport of mitochondria in DRG neurons cultured from HSPB1 S135F mice", "assay_type": "cell-based, mouse", "conditions": "2.5 μM; for amount of stationary mitochondria / number of moving mitochondria in the neurites / number of total mitochondria in the neurites: vs DMSO", "from_the_text": "Both compounds were able to increase the number of moving mitochondria in the neurites of HSPB1^S135F DRG neurons (FIGS. 4A and 4D)."}, "[8]": {"experiment": "Mouse pharmacokinetic studies (plasma and brain)", "assay_type": "in vivo", "conditions": "male, C57BL/6, mouse, iv, 1 mg/kg, read-out: Mouse brain to plasma ratio", "procedure": "Male C57BL/6 mice were fasted overnight. Compounds A and B were dissolved in dimethyl acetamide at 10 times the final concentration, then Solutol HS 15 (BASF) was added to a final concentration of 10%. Finally 80% saline was added and vortexed to achieve a clear solution. Fifteen animals were injected via the tail vein with 1 mg/kg compound. Blood was collected by retro-orbital bleed at 5 minutes, 15 minutes, 30 minutes, 1 hour, 2 hours, 4 hours, 8 hours and 24 hours after dosing. At 5 minutes, 30 minutes, 1 hour and 4 hours after dosing three animals per time point were sacrificed and brains were removed. The blood was centrifuged at 2000 g for 5 minutes at 4° C. to obtain plasma. Brain samples were homogenized in PBS. The plasma and brain homogenate were extracted with acetonitrile and the level of compound was analyzed by LC/MS/MS. The level of compound in plasma was calculated from a standard curve in rat plasma and the level in brain was calculated from a standard curve in brain homogenate. The area under the curve in plasma and brain were calculated using WinNonLin software. The brain to plasma ratio was determined using the area under the curve values for the two compartments."}, "mutant HSPB1^S135F mice [9]": {"test_system": "mutant HSPB1^S135F mice", "experiment": "Motor and sensory deficits of mutant HSPB1 S135F mice (CMT2 model)", "assay_type": "in vivo, mouse", "conditions": "3 mg/kg, daily IP injection, symptomatic animals", "from_the_text": "From the age of 6 months on, mutant HSPB1^S135F mice display motor and sensory deficits (d'Ydewalle et al., 2011). […] A positive trend for all the compounds tested was observed."}, "mutant HSPB1^S135F mice [10]": {"test_system": "mutant HSPB1^S135F mice", "conditions": "d'Ydewalle et al., 2011; cited from earlier work"}, "HSPB1^S135F DRG neurons [11]": {"test_system": "HSPB1^S135F DRG neurons", "conditions": "d'Ydewalle et al., 2011; cited from earlier work"}}, "note": "“Also recorded” adds a separate entry of the source.", "data": [{"smiles": "O=C(NO)c1cnc(NC2(c3ccccc3)CC2)nc1", "note": "[Compound A, N-hydroxy-2-((1-phenylcyclopropyl)amino)pyrimidine-5-carboxamide]", "values": [{"measurement": "increasing the withdrawal force (Von Frey)", "setting": "[1]; 3 mg/kg PO b.i.d.", "value": "not active"}, {"measurement": "animals waking ability", "setting": "[1]; 3 mg/kg and 10 mg/kg PO starting from study day 7", "value": "trend of improvement"}, {"measurement": "Von Frey withdrawal force", "setting": "[1]; 10 mg/kg PO b.i.d., study day 13, vehicle 9.45±0.66 g, ns", "value": "11.00 ± 1.07", "unit": "g"}, {"measurement": "Von Frey withdrawal force", "setting": "[1]; 10 mg/kg PO b.i.d., study day 15, vehicle 14.50±1.51 g, p<0.05", "value": "33.85 ± 6.96", "unit": "g"}, {"measurement": "Von Frey force", "setting": "[1]; 10 mg/kg, study days 14-15", "value": "significantly decreased"}, {"measurement": "sensory neuropathy induced by vincristine (SNAP)", "setting": "[2]; 25 mg/kg/day intraperitoneal, one week, co-treatment with vincristine", "value": "seems to reduce the sensory neuropathy"}, {"measurement": "Von Frey withdrawal force", "setting": "[3]; 3 mg/kg PO b.i.d., 2 hours post dosing, study day 15, vehicle 13.21±1.49 g", "value": "53.20 ± 2.78", "unit": "g"}, {"measurement": "Von Frey withdrawal force", "setting": "[3]; 10 mg/kg PO b.i.d., study day 13 post dosing, vehicle 15.33±2.13 g", "value": "53.11 ± 4.77", "unit": "g"}, {"measurement": "reversing pain (conclusion)", "setting": "[3]; doses of 3 mg/kg and 10 mg/kg", "value": "active in reversing pain"}, {"measurement": "acetylated α-tubulin levels on Western blot", "setting": "[4]", "value": "significant increase"}, {"measurement": "acetylated α-tubulin, staining of treated cells", "setting": "[4]", "value": "increased levels"}, {"measurement": "clearance", "setting": "[5]", "value": 100, "unit": "mL/min/kg"}, {"measurement": "acetylation of H3 on Western blot", "setting": "[6]", "value": "do not change"}, {"measurement": "levels of acetylated α-tubulin in the neurites (staining)", "setting": "HSPB1^S135F DRG neurons [7]", "value": "increased"}, {"measurement": "amount of stationary mitochondria", "setting": "HSPB1^S135F DRG neurons [7]", "value": "remains unchanged"}, {"measurement": "number of moving mitochondria in the neurites", "setting": "HSPB1^S135F DRG neurons [7]", "value": "increase"}, {"measurement": "number of total mitochondria in the neurites", "setting": "HSPB1^S135F DRG neurons [7]", "value": "increase"}, {"measurement": "Kp", "setting": "[8]", "value": 1.23}]}, {"smiles": "O=C(NO)c1cnc(NC2(c3cccc(F)c3)CCCCC2)nc1", "note": "[Compound B, 2-((1-(3-fluorophenyl)cyclohexyl)amino)-N-hydroxypyrimidine-5-carboxamide]", "values": [{"measurement": "acetylated α-tubulin levels on Western blot", "setting": "[4]", "value": "significant increase"}, {"measurement": "acetylated α-tubulin, staining of treated cells", "setting": "[4]", "value": "increased levels"}, {"measurement": "relative potency to increase acetylated α-tubulin (dose-response)", "setting": "[4]", "value": "more potent"}, {"measurement": "amplitude of the compound muscle action potential (CMAP)", "setting": "mutant HSPB1^S135F mice [9]", "value": "statistical significant rescue; also recorded: can restore"}, {"measurement": "clearance", "setting": "[5]", "value": 38.3, "unit": "mL/min/kg"}, {"measurement": "acetylation of H3 on Western blot", "setting": "[6]", "value": "do not change"}, {"measurement": "levels of acetylated α-tubulin in the neurites (staining)", "setting": "HSPB1^S135F DRG neurons [7]", "value": "increased"}, {"measurement": "amount of stationary mitochondria", "setting": "HSPB1^S135F DRG neurons [7]", "value": "remains unchanged"}, {"measurement": "number of moving mitochondria in the neurites", "setting": "HSPB1^S135F DRG neurons [7]", "value": "increase"}, {"measurement": "number of total mitochondria in the neurites", "setting": "HSPB1^S135F DRG neurons [7]", "value": "increase"}, {"measurement": "Kp", "setting": "[8]", "value": 1.28}]}, {"smiles": "NCC1(CC(=O)O)CCCCC1", "note": "[Gabapentin, reference compound]", "values": [{"measurement": "Von Frey withdrawal force", "setting": "[1]; 150 mg/kg IP, study day 15, vehicle 14.50±1.51 g", "value": "43.95 ± 5.00", "unit": "g"}, {"measurement": "Von Frey withdrawal force", "setting": "[3]; 150 mg/kg IP, 2 hours post dosing, study day 15, vehicle 13.21±1.49 g", "value": "54.90 ± 3.63", "unit": "g"}]}, {"smiles": "CC(/C=C/C(=O)NO)=C\\[C@@H](C)C(=O)c1ccc(N(C)C)cc1", "note": "[TSA, Trichostatin A, reference compound]", "values": [{"measurement": "restoration of motor and sensory defects", "setting": "mutant HSPB1^S135F mice [10]", "value": "can be restored"}, {"measurement": "acetylated α-tubulin, staining of treated cells", "setting": "[4]", "value": "increased levels"}, {"measurement": "relative potency to increase acetylated α-tubulin (dose-response)", "setting": "[4]", "value": "more potent"}, {"measurement": "acetylated H3 in nuclei, staining of treated cells", "setting": "[6]; immunofluorescent staining", "value": "more acetylated H3"}, {"measurement": "acetylation of H3 on Western blot", "setting": "[6]", "value": "increases"}]}, {"smiles": "CN1CCc2c(c3ccccc3n2Cc2ccc(C(=O)NO)cc2)C1", "note": "[Tubastatin A]", "values": [{"measurement": "restoration of motor and sensory defects", "setting": "mutant HSPB1^S135F mice [10]", "value": "can be restored"}, {"measurement": "amplitude of the compound muscle action potential (CMAP)", "setting": "mutant HSPB1^S135F mice [9]", "value": "can restore"}, {"measurement": "rescue of the axonal transport defect of mitochondria", "setting": "HSPB1^S135F DRG neurons [11]", "value": "could be rescued"}]}, {"smiles": "CC[C@]1(O)C[C@H]2CN(CCc3c([nH]c4ccccc34)[C@@](C(=O)OC)(c3cc4c(cc3OC)N(C=O)[C@H]3[C@@](O)(C(=O)OC)[C@H](OC(C)=O)[C@]5(CC)C=CCN6CC[C@]43[C@@H]65)C2)C1", "note": "[vincristine]", "values": [{"measurement": "reduction in SNAP amplitude compared to vehicle treated mice", "setting": "[2]; C57B16/J, mouse, in vivo, ip, 7 days", "value": 35.4, "unit": "%"}, {"measurement": "motor phenotype", "setting": "[2]; mouse, in vivo", "value": "not detected"}, {"measurement": "SNAP latencies", "setting": "[2]; mouse, in vivo, ip", "value": "unaffected"}]}]}
